Seven substances from patent US5234907A, “Synthetic vasoactive intestinal peptide analogs” (Hoffmann-La Roche Inc., priority 1991, dated 1993) can be followed below.

Test [1] relates to guinea pig tracheal smooth muscle. Kind of test: Tracheal relaxant activity of VIP analogs on isolated guinea pig tracheal rings. The format is cell-based. The conditions noted are these: cumulative concentration response; responses as % of maximum response to VIP (10^-6 M=100%); at least three tissues pooled; linear regression.
A further test has as its system guinea pigs. Kind of test: In vivo bronchodilator activity by tracheal instillation against histamine-induced bronchoconstriction. Also on record: species or system guinea pig. The conditions noted are these: 100 μl, anesthetized male Hartley guinea pigs, histamine challenge 50 μg/kg i.v., inhibition of tracheal pressure increase.

*1 amine or outer side, *2 acyl side, *3 side chain or, on linkers, in order; H or OH if unused. [ ]: non-standard residue; d: D form. Cys(Acm) = CC(=O)NCSC[C@H](N[*:1])C(=O)[*:2]; Phe(4-NH2) = Nc1ccc(C[C@H](N)C(=O)O)cc1; Phe(4-F) = N[C@@H](Cc1ccc(F)cc1)C(=O)O; NMeA = CN[C@@H](C)C(=O)O; Nle = CCCC[C@H](N)C(=O)O

For orientation: EC50 means the concentration that produces a half-maximal response. A higher EC50 goes with lower potency in that assay. For “Ac--[N--Me--Ala^1, Lys^12, Nle^17, Ala^19, ^26, Thr^28 ]--VIP (Ac-[NMeA]SDAVFTDNYTKLRKQ[Nle]AAKKYLNSVLT-NH2; SMILES CCCC[C@H](NC(=O)[C@H](CCC(N)=O)NC(=O)[C@H](CCCCN)NC(=O)[C@H](CCCNC(=N)N)NC(=O)[C@H](CC(C)C)NC(=O)[C@H](CCCCN)NC(=O)[C@@H](NC(=O)[C@H](Cc1ccc(O)cc1)NC(=O)[C@H](CC(N)=O)NC(=O)[C@H](CC(=O)O)NC(=O)[C@@H](NC(=O)[C@H](Cc1ccccc1)NC(=O)[C@@H](NC(=O)[C@H](C)NC(=O)[C@H](CC(=O)O)NC(=O)[C@H](CO)NC(=O)[C@H](C)N(C)C(C)=O)C(C)C)[C@@H](C)O)[C@@H](C)O)C(=O)N[C@@H](C)C(=O)N[C@@H](C)C(=O)N[C@@H](CCCCN)C(=O)N[C@@H](CCCCN)C(=O)N[C@@H](Cc1ccc(O)cc1)C(=O)N[C@@H](CC(C)C)C(=O)N[C@@H](CC(N)=O)C(=O)N[C@@H](CO)C(=O)N[C@H](C(=O)N[C@@H](CC(C)C)C(=O)N[C@H](C(N)=O)[C@@H](C)O)C(C)C) [Ac--(SEQ ID NO: 91)--NH2, residue before ^26 lost in print, probably Val^26]”, the EC50 in test [1] was found to be 2.8 nM. Moreover, in the test on guinea pigs, the “Bronchodilator activity in guinea pigs, ED50” value (from here on “Bronchodilator activity”) amounted to 1.5 µg.

“Ac--[N--Me--Ala^1, Lys^12, Nle^17, Val^26, Thr^28 ]--VIP (Ac-[NMeA]SDAVFTDNYTKLRKQ[Nle]AVKKYLNSVLT-NH2; SMILES CCCC[C@H](NC(=O)[C@H](CCC(N)=O)NC(=O)[C@H](CCCCN)NC(=O)[C@H](CCCNC(=N)N)NC(=O)[C@H](CC(C)C)NC(=O)[C@H](CCCCN)NC(=O)[C@@H](NC(=O)[C@H](Cc1ccc(O)cc1)NC(=O)[C@H](CC(N)=O)NC(=O)[C@H](CC(=O)O)NC(=O)[C@@H](NC(=O)[C@H](Cc1ccccc1)NC(=O)[C@@H](NC(=O)[C@H](C)NC(=O)[C@H](CC(=O)O)NC(=O)[C@H](CO)NC(=O)[C@H](C)N(C)C(C)=O)C(C)C)[C@@H](C)O)[C@@H](C)O)C(=O)N[C@@H](C)C(=O)N[C@H](C(=O)N[C@@H](CCCCN)C(=O)N[C@@H](CCCCN)C(=O)N[C@@H](Cc1ccc(O)cc1)C(=O)N[C@@H](CC(C)C)C(=O)N[C@@H](CC(N)=O)C(=O)N[C@@H](CO)C(=O)N[C@H](C(=O)N[C@@H](CC(C)C)C(=O)N[C@H](C(N)=O)[C@@H](C)O)C(C)C)C(C)C) [Ac--(SEQ ID NO: 88)--NH2]”: the response in test [1] was half-maximal at 7.2 nM (EC50). Besides, the “Bronchodilator activity” value in the test with guinea pigs turned out to be 8.5 µg.

Substance “Ac--[p-F--Phe^6, Glu^8, Lys^12, Nle^17, Ala^19, Val^26, Thr^28, Gly^29,30, Cys(Acm)^31 ]--VIP (Ac-HSDAV[Phe(4-F)]TENYTKLRKQ[Nle]AAKKYLNSVLTGG[Cys(Acm)]-NH2; SMILES CCCC[C@H](NC(=O)[C@H](CCC(N)=O)NC(=O)[C@H](CCCCN)NC(=O)[C@H](CCCNC(=N)N)NC(=O)[C@H](CC(C)C)NC(=O)[C@H](CCCCN)NC(=O)[C@@H](NC(=O)[C@H](Cc1ccc(O)cc1)NC(=O)[C@H](CC(N)=O)NC(=O)[C@H](CCC(=O)O)NC(=O)[C@@H](NC(=O)[C@H](Cc1ccc(F)cc1)NC(=O)[C@@H](NC(=O)[C@H](C)NC(=O)[C@H](CC(=O)O)NC(=O)[C@H](CO)NC(=O)[C@H](Cc1c[nH]cn1)NC(C)=O)C(C)C)[C@@H](C)O)[C@@H](C)O)C(=O)N[C@@H](C)C(=O)N[C@@H](C)C(=O)N[C@@H](CCCCN)C(=O)N[C@@H](CCCCN)C(=O)N[C@@H](Cc1ccc(O)cc1)C(=O)N[C@@H](CC(C)C)C(=O)N[C@@H](CC(N)=O)C(=O)N[C@@H](CO)C(=O)N[C@H](C(=O)N[C@@H](CC(C)C)C(=O)N[C@H](C(=O)NCC(=O)NCC(=O)N[C@@H](CSCNC(C)=O)C(N)=O)[C@@H](C)O)C(C)C) [Ac--(SEQ ID NO: 67)--NH2]” registered an EC50 in test [1] of 1.9 nM. In the test on guinea pigs, the “Bronchodilator activity” value came out at 0.30 µg.

Substance “Ac--[p-F--Phe^6, Glu^8, Lys^12, Nle^17, Ala^25, Leu^26, Lys^27,28, Gly^29,30, Thr^31 ]--VIP (Ac-HSDAV[Phe(4-F)]TENYTKLRKQ[Nle]AVKKYLNALKKGGT-NH2; SMILES CCCC[C@H](NC(=O)[C@H](CCC(N)=O)NC(=O)[C@H](CCCCN)NC(=O)[C@H](CCCNC(=N)N)NC(=O)[C@H](CC(C)C)NC(=O)[C@H](CCCCN)NC(=O)[C@@H](NC(=O)[C@H](Cc1ccc(O)cc1)NC(=O)[C@H](CC(N)=O)NC(=O)[C@H](CCC(=O)O)NC(=O)[C@@H](NC(=O)[C@H](Cc1ccc(F)cc1)NC(=O)[C@@H](NC(=O)[C@H](C)NC(=O)[C@H](CC(=O)O)NC(=O)[C@H](CO)NC(=O)[C@H](Cc1c[nH]cn1)NC(C)=O)C(C)C)[C@@H](C)O)[C@@H](C)O)C(=O)N[C@@H](C)C(=O)N[C@H](C(=O)N[C@@H](CCCCN)C(=O)N[C@@H](CCCCN)C(=O)N[C@@H](Cc1ccc(O)cc1)C(=O)N[C@@H](CC(C)C)C(=O)N[C@@H](CC(N)=O)C(=O)N[C@@H](C)C(=O)N[C@@H](CC(C)C)C(=O)N[C@@H](CCCCN)C(=O)N[C@@H](CCCCN)C(=O)NCC(=O)NCC(=O)N[C@H](C(N)=O)[C@@H](C)O)C(C)C) [Ac--(SEQ ID NO: 17)--NH2]” came in with an EC50 in test [1] of 0.33 nM. Further, in the test with guinea pigs, the “Bronchodilator activity” value was determined as 0.12 µg.

For the substance “Ac--[p-F--Phe^6, Glu^8, Lys^12, Nle^17, Val^26, Thr^28, Gly^29,30, Thr^31 ]--VIP (Ac-HSDAV[Phe(4-F)]TENYTKLRKQ[Nle]AVKKYLNSVLTGGT-NH2; SMILES CCCC[C@H](NC(=O)[C@H](CCC(N)=O)NC(=O)[C@H](CCCCN)NC(=O)[C@H](CCCNC(=N)N)NC(=O)[C@H](CC(C)C)NC(=O)[C@H](CCCCN)NC(=O)[C@@H](NC(=O)[C@H](Cc1ccc(O)cc1)NC(=O)[C@H](CC(N)=O)NC(=O)[C@H](CCC(=O)O)NC(=O)[C@@H](NC(=O)[C@H](Cc1ccc(F)cc1)NC(=O)[C@@H](NC(=O)[C@H](C)NC(=O)[C@H](CC(=O)O)NC(=O)[C@H](CO)NC(=O)[C@H](Cc1c[nH]cn1)NC(C)=O)C(C)C)[C@@H](C)O)[C@@H](C)O)C(=O)N[C@@H](C)C(=O)N[C@H](C(=O)N[C@@H](CCCCN)C(=O)N[C@@H](CCCCN)C(=O)N[C@@H](Cc1ccc(O)cc1)C(=O)N[C@@H](CC(C)C)C(=O)N[C@@H](CC(N)=O)C(=O)N[C@@H](CO)C(=O)N[C@H](C(=O)N[C@@H](CC(C)C)C(=O)N[C@H](C(=O)NCC(=O)NCC(=O)N[C@H](C(N)=O)[C@@H](C)O)[C@@H](C)O)C(C)C)C(C)C) [Ac--(SEQ ID NO: 14)--NH2]”, the EC50 in test [1] worked out at 0.32 nM. Besides, in the test on guinea pigs, the “Bronchodilator activity” value was 0.1 µg.

In turn, “Ac--[p-F--Phe^6, p-NH2 --Phe^10, Lys^12, Nle^17, Val^26, Thr^28 ]--VIP (Ac-HSDAV[Phe(4-F)]TDN[Phe(4-NH2)]TKLRKQ[Nle]AVKKYLNSVLT-NH2; SMILES CCCC[C@H](NC(=O)[C@H](CCC(N)=O)NC(=O)[C@H](CCCCN)NC(=O)[C@H](CCCNC(=N)N)NC(=O)[C@H](CC(C)C)NC(=O)[C@H](CCCCN)NC(=O)[C@@H](NC(=O)[C@H](Cc1ccc(N)cc1)NC(=O)[C@H](CC(N)=O)NC(=O)[C@H](CC(=O)O)NC(=O)[C@@H](NC(=O)[C@H](Cc1ccc(F)cc1)NC(=O)[C@@H](NC(=O)[C@H](C)NC(=O)[C@H](CC(=O)O)NC(=O)[C@H](CO)NC(=O)[C@H](Cc1c[nH]cn1)NC(C)=O)C(C)C)[C@@H](C)O)[C@@H](C)O)C(=O)N[C@@H](C)C(=O)N[C@H](C(=O)N[C@@H](CCCCN)C(=O)N[C@@H](CCCCN)C(=O)N[C@@H](Cc1ccc(O)cc1)C(=O)N[C@@H](CC(C)C)C(=O)N[C@@H](CC(N)=O)C(=O)N[C@@H](CO)C(=O)N[C@H](C(=O)N[C@@H](CC(C)C)C(=O)N[C@H](C(N)=O)[C@@H](C)O)C(C)C)C(C)C) [Ac--(SEQ ID NO: 68)--NH2]” yielded an EC50 in test [1] of 1.2 nM. In addition, in the test on guinea pigs, the “Bronchodilator activity” value was 3.0 µg.

As for “Ac--[p-NH2 --Phe^10, Lys^12, Nle^17, Val^26, Thr^28 ]--VIP (Ac-HSDAVFTDN[Phe(4-NH2)]TKLRKQ[Nle]AVKKYLNSVLT-NH2; SMILES CCCC[C@H](NC(=O)[C@H](CCC(N)=O)NC(=O)[C@H](CCCCN)NC(=O)[C@H](CCCNC(=N)N)NC(=O)[C@H](CC(C)C)NC(=O)[C@H](CCCCN)NC(=O)[C@@H](NC(=O)[C@H](Cc1ccc(N)cc1)NC(=O)[C@H](CC(N)=O)NC(=O)[C@H](CC(=O)O)NC(=O)[C@@H](NC(=O)[C@H](Cc1ccccc1)NC(=O)[C@@H](NC(=O)[C@H](C)NC(=O)[C@H](CC(=O)O)NC(=O)[C@H](CO)NC(=O)[C@H](Cc1c[nH]cn1)NC(C)=O)C(C)C)[C@@H](C)O)[C@@H](C)O)C(=O)N[C@@H](C)C(=O)N[C@H](C(=O)N[C@@H](CCCCN)C(=O)N[C@@H](CCCCN)C(=O)N[C@@H](Cc1ccc(O)cc1)C(=O)N[C@@H](CC(C)C)C(=O)N[C@@H](CC(N)=O)C(=O)N[C@@H](CO)C(=O)N[C@H](C(=O)N[C@@H](CC(C)C)C(=O)N[C@H](C(N)=O)[C@@H](C)O)C(C)C)C(C)C) [Ac--(SEQ ID NO: 54)--NH2]”, the EC50 in test [1] was determined as 0.36 nM. Also, in the test with guinea pigs, the “Bronchodilator activity” value is 2.0 µg.
